Test results from publication PMC5372569, “A New Oleanolic Acid Derivative against CCl4-Induced Hepatic Fibrosis in Rats” (International Journal of Molecular Sciences, 2017).
“And” between values parts separate entries of the source, which are not always exact repeats. Equal entries are not always repeated.

Tests used:
HBV (Hepatitis B Virus) = system: HBV (Hepatitis B Virus); parameters: method as in PMID 27023498; conditions: previous studies; cited from earlier work
[1] = Pharmacokinetic study after single-dose oral administration (HPLC-UV); assay type: in vivo, SD rats; conditions: rats
Experimental: The LC system is made up of an Agilent 1100 HPLC system (Agilent Corporation, USA) coupled with a reverse-phase Agilent TC-C18 analytical column (4.6 mm × 250 mm, 5 µm particle size). The column temperature set at 25 °C. The column used during the pharmacokinetic assay was eluted at a flow rate of 1 mL/min, and the solvent consisted of 98% methanol and 2% aqueous solution. The detection wavelength was 278 nm and the injection volume was 10 μL. Healthy SD rats had no access to food until 12 h after dose administration, while water was free to access throughout the experiments. To determine the drug concentrations and to calculate the pharmacokinetic parameters, blood was obtained from the ophthalmic vein and collected with heparinized microcentrifuge tubes. The plasma was separated by centrifuging the blood samples at 4000 rpm for 15 min. Plasma stored in a freezer at −20 °C was thawed at 4 °C before treatment. After that, 15 μL of IS (50.4 μg/mL) working solution was added to such a plasma sample (200 μL), followed by vortex-mixing for 1 min to obtain the mixture. Then we added 600 μL acetonitrile to the mixture and vortexed for 5 min. After that, the mixture was centrifuged at 12,000 rpm for 5 min at 4 °C. […] The residue was then reconstituted in 100 μL methanol, and stirred and vortexed for 1 min. The solution was centrifuged at 12,000 rpm for 5 min to obtain the supernatant. Finally, 10 μL of supernatant was injected into the HPLC system for further analysis. Oxy-Di-OA was dissolved in normal saline before using. Before administration of drug, six SD rats had no access to food overnight but water was allowed free access. A single dose (500 mg/kg) of Oxy-Di-OA solution was administered orally to rats. After that, the blood samples were collected with heparinized microcentrifuge tubes at 1, 2, 6, 8, 10, 12, 14, 16 and 20 h. Plasma was separated by centrifugation (4000 rpm, 10 min, and 15 °C) and kept at −20 °C until necessary.

[2] = Stability of Oxy-Di-OA in rat plasma and processed samples; assay type: physicochemical
Experimental: The stability of Oxy-Di-OA was investigated by analyzing the QC samples over three levels under different conditions, including −20 °C for 10 and 20 days (long-term stability), and room temperature for one day (short-term stability). In addition, the concentration of Oxy-Di-OA would be detected in the above samples to compare with the initial value in order to determine whether it has changed or not.

[3] = Acute toxicity assay via intraperitoneal injection; assay type: in vivo, Kunming mice; conditions: male, Kunming, mouse, in vivo, ip, mice, Käber assessment
Experimental: (§1) According to previous studies, Oxy-Di-OA was further investigated for its approximate LD50 and 95% confidence interval (CIs) value in mice. Male Kunming mice, weighing 20 ± 2 g were randomly divided into eleven groups of six individuals matched by weight and size. The mice had fasted for 12 h, but water was allowed ad libitum before the acute toxicity experiments.
(§2) The maximum suspended dose (900 mg/kg) of Oxy-Di-OA was prepared in bean oil solution. One group of mice was injected intraperitoneally with bean oil as a normal control. Then the other five groups of mice were given intraperitoneal injections of Oxy-Di-OA in doses of 178, 422, 600, 750, and 900 mg/kg, respectively. The mice were observed continuously for 1 h after such treatment and then intermittently for 4 h, and thereafter over a period of 24 h. The mice were further observed for up to seven days following treatment for any situations of poisoning and deaths and the latency of death. Some abnormal behaviors were recorded.
(§3) The acute toxicity assay via intraperitoneal injection was evaluated by LD50 and 95% CIs which were calculated by Käber assessment.

mice = assay: Acute toxicity assay via intraperitoneal injection; assay type: in vivo, Kunming mice
Experimental: as §1, §2, §3

[4] = system: CCl4-induced liver fibrosis in rats; assay: Liver and spleen indices in CCl4-induced liver fibrosis; assay type: in vivo; conditions: mean ± SD
Experimental: (§4) After a two-week acclimation period, 52 rats were randomly divided into five groups (each group approximately consisted of ten rats). (1) Normal group: rats were fed with regular diet and distilled water and were injected intraperitoneally with olive oil (2 mL/kg body weight per day, i.p. twice per week) for nine weeks; (2) Model group: rats were feeding with the same quantity as the normal group and were injected with 40% CCl4/olive oil (2 mL/kg body weight, twice per week) for nine weeks to induce liver fibrosis; (3) Low-dose group: rats were fed with the same quantity as the normal group and were administered intraperitoneal injections with 40% CCl4/olive oil (2 mL/kg body weight, twice per week) and with a low dose (14 mg/kg body weight, once per day) Oxy-Di-OA treatment for nine weeks; (4) High-dose group: rats were fed with the same quantity as the normal group and were treated with 40% CCl4/olive oil (2 mL/kg body weight twice per week) and with a high dose (28 mg/kg body weight, once per day) Oxy-Di-OA treatment for nine weeks; (5) Positive control group: rats were fed with the same quantity as the normal group and were administered 40% CCl4/olive oil (2 mL/kg body weight, twice per week) and with bifendate (10.5 mg/kg body weight, once per day) for nine weeks.
(§5) At 48 h after the final injection of CCl4, all rats were anaesthetized with chloral hydrate, and the blood samples were collected from the aorta abdominalis. The serum samples were obtained by centrifugation at 3000 rpm for 15 min to obtain the supernatant and were kept frozen at −80 °C until biochemical analysis. Livers and spleens were immediately removed, rinsed in ice-cold saline, and weighed. The data were used for calculating liver and spleen indices. Then a portion of each liver was fixed in 4% buffered formaldehyde, embedded in paraffin blocks, and stained with hematoxylin-eosin (H&E) for histological and biochemical analyses. The rest of the tissues were stored at −80 °C until required.
We used the percentage of the body weight to represent relative weights of the liver and spleen, respectively. The indices of liver and spleen were expressed as Wl/Wm and Ws/Wm, respectively. The Wl and Ws represented the average liver and spleen weight of each group, respectively, and Wm was the average rat body weight of each group.

[5] = system: CCl4-induced liver fibrosis in rats; assay: Histological assessment (H&E) of livers in CCl4-induced liver fibrosis; assay type: in vivo; conditions: nine weeks
Experimental: as §4, §5

[6] = Acute toxicity assay via gavage; conditions: male, Kunming, mouse, in vivo; mice, gavage (oral administration), doses up to 2000 mg/kg
Experimental: as §1
One group of mice was orally administered bean oil as a normal control. Then the other four groups of mice were given gavage of Oxy-Di-OA in doses of 200, 500, 1000, and 2000 mg/kg, respectively. The mice were observed continuously for 1 h after such treatment and then intermittently for 4 h, and thereafter over a period of 24 h. The mice were further observed for up to seven days following treatment for any signs of toxicity, death, and the latency of death. Abnormal symptoms were recorded immediately.
The acute toxicity test via gavage was evaluated by LD50.

TGF-β1 = assay: Immunohistochemical staining of TGF-β1 in liver tissue, CCl4-induced liver fibrosis; assay type: in vivo; conditions: nine weeks, CCl4 rats
Experimental: as §4
Immunostaining was conducted as paraffin-embedded liver tissue sections of 5 µm thickness to determine the expression and distribution of TGF-β1 in the liver tissue of rats. Tissues were treated with 3% H2O2 in distilled water for 10 min to block endogenous peroxidase activity followed by another wash, and then blocked with 5% BSA blocking buffer for 20 min. Then, after endogenous peroxidase blockage, the sections were incubated with TGF-β1 primary antibody (1:50 dilution) at 4 °C overnight. The next day, they were washed three times with PBS (phosphate-buffered saline) and then incubated with HRP-labelled goat-anti-rabbit secondary antibodies at 37 °C for 30 min. […] The expression of TGF-β1 in liver tissues was analyzed under a light microscope (Olympus, Tokyo, Japan).

[7] = system: CCl4-induced liver fibrosis in rats; assay: Serum ALT and AST in CCl4-induced liver fibrosis; assay type: in vivo; conditions: mean ± SD
Experimental: as §4, §5
According to the corresponding manufacturer’s protocols, plasma samples were prepared after finishing animal experiments and determined using ALT and AST diagnostic kits. The ALT and AST enzyme activities were measured by the third affiliated hospital of Beijing University of Chinese Medicine (Beijing, China).

[8] = SD, rat, plasma, single oral dose 500 mg/kg, n = 6
[9] = single oral dose 500 mg/kg, n = 6
[10] = dose 28 mg/kg (high dose), 28 mg/kg
[11] = high-dose group 28 mg/kg once per day
[12] = low-dose group 14 mg/kg once per day
[13] = bifendate 10.5 mg/kg once per day

For `CC1(C)CCC2(C(=O)O)CC[C@]3(C)C(=CC=C4[C@@]5(C)CCC(=O)C(C)(C)[C@@H]5CC[C@]43C)C2C1` (stereo partly shown) [Oxy-Di-OA, 3-oxours-oleana-9(11), 12-dien-28-oic acid], the “anti-HBV activity IC50” value (HBV (Hepatitis B Virus)) is listed as 3.13 µg/mL, the “inhibition of the rebound of the viral replication rate, compared with lamivudine” value (HBV (Hepatitis B Virus)) is listed as “superior to the positive drug (Lamivudine)” and the “inhibition rate of the secretion of HBsAg” value (HBV (Hepatitis B Virus)) is listed as 90.52% ± 1.78%. The “reduction rate of the secretion of HBeAg” value (HBV (Hepatitis B Virus)) was 42.31% ± 3.53%, the AUC(0-t) ([1]; SD, rat, plasma, po, 500 mg/kg, single oral dose 500 mg/kg, n = 6, read-out: AUClast (area under the concentration-time curve from t = 0 to the last time)) was 88020 ± 660 ng·h/mL and the Cmax [1, 8] was 8180 ± 660 ng/mL. The MRT [1, 8] was 9.48 ± 0.48 h, the Tmax ([1]; SD, rat, plasma, single oral dose 500 mg/kg, n = 6, read-out: Tmax (time to reach peak concentration)) was 10 ± 2.19 h and the half-life ([1]; SD, rat, plasma, single oral dose 500 mg/kg, n = 6, read-out: t1/2 (elimination half-life) (converted)) was 2.19 ± 0.71 h. The CL [1, 9] was 92.9307 ± 16.544 mL/min/kg, the Vz [1, 9] was 18,290.17 ± 9453.59 mL/kg and the “AUClast (area under the concentration-time curve from t = 0 to the last time)” value ([1]; single oral dose 500 mg/kg, n = 6, 500 mg/kg) was 90210 ± 15680 ng·h/mL. For the same compound, the “elimination half-life compared with oleanolic acid” value ([1]; oleanolic acid data ref 27) was “longer elimination half-life than its parent compound, oleanolic acid”, the “stability in plasma biomatrix and processed samples” value ([2]; freezing and thawing cycles, room temperature 24 h) was “stable” and the “concentration relative to the initial concentration” value ([2]; methanol solutions, room temperature for 24 h) was 97.46% to 100.17%. For the same compound, the LD50 at 7 days ([3]; read-out: 95% CIs of LD50) was 640 to 799 mg/kg, the LD50 at 7 days ([3]; read-out: LD50) was 715 mg/kg and the “dose harmless for further in vivo study” value (mice) was 600 mg/kg. The “Death Rate” value (mice; 178 mg/kg) was 0%, the “Death Rate” value (mice; 422 mg/kg) was 0% and the “Death Rate” value (mice; 600 mg/kg) was 0%. The “Death Rate” value (mice; 750 mg/kg) was 67%, the “Death Rate” value (mice; 900 mg/kg) was 83% and the symptoms observed (mice; high dose, one hour after the experiment) was “slow movement and a decrease in aggressiveness”. For the same compound, the “Liver Index” value ([4]; dose 14 mg/kg) was 3.46 ± 0.38 %, the “Spleen Index” value ([4]; dose 14 mg/kg) was 0.24 ± 0.06 % and the “Liver Index” value [4, 10] was 3.15% ± 0.36% and 3.15 ± 0.36 *^,# %. For the same compound, the “Spleen Index” value [4, 10] was 0.26% ± 0.05% and 0.26 ± 0.05 %, the “histological examination of rat livers (H&E)” value (“histological examination” below) [5, 11] was “marked regression and alleviation in the abnormal areas” and the “histological examination” value [5, 12] was “moderate regression of morphological changes”. The LD50 at 7 days [6] was over 2000 mg/kg, the “expression of TGF-β1 (immunohistochemical staining)” value (“expression of TGF-β1” below) (TGF-β1; [11]) was “a lower expression of TGF-β1 compared to model group” and the “expression of TGF-β1” value (TGF-β1; [12]) was “a lower expression of TGF-β1 compared to model group”. It also gave an ALT ([7]; dose 14 mg/kg) of 77.58 ± 39.58 U/L, an AST ([7]; dose 14 mg/kg) of 122.00 ± 52.19 U/L and an ALT ([7]; dose 28 mg/kg) of 67.06 ± 51.59 U/L. For the same compound, the AST ([7]; dose 28 mg/kg) was 141.89 ± 71.57 U/L.
For `COC(=O)c1cc(OC)c2c(c1-c1c(C(=O)OC)cc(OC)c3c1OCO3)OCO2` [Bifendate, bifendate, reference compound], the “Liver Index” value ([4]; dose 10.5 mg/kg) was 3.57 ± 0.34 %, the “Spleen Index” value ([4]; dose 10.5 mg/kg) was 0.24 ± 0.04 % and the “histological examination” value [5, 13] was “notable alleviation in abnormal areas”. The “expression of TGF-β1” value (TGF-β1; [13]) was “a low expression of TGF-β1”, the ALT ([7]; dose 10.5 mg/kg) was 54.54 ± 21.40 U/L and the AST ([7]; dose 10.5 mg/kg) was 122.56 ± 39.18 U/L.
